In EPA's ToxValDB 9.5 (doi:10.2903/j.efsa.2010.1871):
In brackets after ≈: the same amount, converted by molar mass.

Tests used:
Bibionidae = settings: chronic/long-term; duration: 28 days; other
Mus musculus = settings: acute; oral; mortality
Pimephales promelas = settings: chronic/long-term; duration: 35 days; growth
Macromiidae = settings: acute; duration: 96 hours; growth
Apis mellifera = settings: acute; duration: 48 hours; dermal; mortality
Lepomis macrochirus = settings: acute; duration: 96 hours; mortality
Tagia sp. = settings: acute; duration: 14 days; mortality
Canidae = settings: oral, Dog Other, hematological
Daphnia magna = settings: chronic/long-term, duration: 21 days
Adalia sp. = assay: LR50; higher = less toxic; settings: chronic/long-term; duration: 21 days; mortality
[1] = reproduction developmental, reproduction

## CCc1ccc(C(=O)NN(C(=O)c2cc(C)cc(C)c2)C(C)(C)C)cc1 [Tebufenozide]
Bibionidae
  NOEC: 0.0057 mg/L
Colinus virginianus; acute, oral, diet, mortality
  LC50: > 814 mg/kg
Colinus virginianus; acute, oral, mortality
  LD50: > 2150 mg/kg
Colinus virginianus; [1]
  NOAEL: 48 mg/kg-day
Mus musculus
  LD50: > 5000 mg/kg
Pimephales promelas
  NOEC: 0.71 mg/L
Macromiidae
  NOEC: 0.046 mg/L
Apis mellifera
  LD50: > 234 µg/piece
Lepomis macrochirus
  LC50: 3 µg/mL (≈ 8.51 µM)
Tagia sp.
  LC50: > 1000 mg/kg
  NOEC: ≥ 1000 mg/kg
Rattus norvegicus; acute, oral, mortality
  LD50: > 5000 mg/kg
Rattus norvegicus; [1]
  NOAEL: 15 mg/kg-day
Canidae; chronic, duration: 52 weeks
  NOAEL: 2 mg/kg-day
Canidae; subchronic, duration: 90 days
  NOAEL: 2 mg/kg-day
Daphnia magna; growth
  NOEC: 0.029 mg/L
Daphnia magna; reproduction
  NOEC: 0.0078 mg/L
Adalia sp.
  LR50: > 128 g/ha
